The experiment deals with T1, Human Cav3.1 calcium channel (Homo sapiens, UniProt O43497).
T1 construct: expressed in transfected cells; host or cells: HEK-293 natClytin/TASK1+Cav3.1 cell line
Briefly: Human Cav3.1 calcium channel patch clamp assay (SyncroPatch 384PE; single point and IC50, voltage dependent block). The class given is cell-based. The conditions noted are these: for % Inhibition (Single Point Data): patch clamp. How it is done: Certain compounds (as indicated) were tested for Human Cav3.1 calcium channel activity via a patch clamp assay as disclosed herein.
Pulse generation and data collection were performed with PatchController384 V1.3.0 and DataController384 V1.2.1 (Nanion Technologies). Offline analysis was performed using Excel and Graphpad Prism (V 8.4.2) with complete data files uploaded to Dotmatics. The access resistance and apparent membrane capacitance were estimated using built-in protocols. Current was recorded in whole cell configuration from a population of cells. The cells were lifted, triturated, and resuspended at 800,000 cells/ml. The cells were allowed to recover in the cell hotel prior to experimentation. Currents were recorded at room temperature. The external solution contained the following (in mM): NaCl 80, NMDG 60, KCl 4, MgCl2 1, CaCl2 6, glucose 5 and HEPES 10 (pH=7.4, Osmolarity˜300 mOsm). The extracellular solution was used as the wash, reference and compound delivery solution.
The compound plate was created at 2× concentrated in the extracellular solution. The compound was diluted to 1:2 when added to the recording well. The amount of DMSO in the extracellular solution was held constant at the level used for the highest tested concentration. For the voltage clamp experiments on Cav3.1, data were sampled at 10 KHz. After establishment of the seal and the passage in the whole cell configuration, the cells were held at −120 mV. Cav3.1 current was evoked using a 100 ms step to −20 mV (to measure resting state block), followed by a 1600 ms step to −65 mV and a second 100 ms step to −20 mV (to measure voltage dependent block). The voltage protocol was applied every 15 seconds in the absence and in the presence of the compounds under investigation. […] Current amplitude (pA) was measured in the peak 1 and 2. The average of last 3 sweeps of each liquid period (vehicle, compound under investigation, full block) was calculated. Nickel-sensitive current was used to calculate the % of inhibition in the presence of the compound under investigation.

Setting [1] is: Testing Conc 1.25, HEK-293 natClytin/TASK1+Cav3.1 cell line.
Setting [2] is: voltage dependent block (VDB), HEK-293 natClytin/TASK1+Cav3.1 cell line, read-out: Cav3.1 IC50.
[3] abbreviates: Testing Conc 1, HEK-293 natClytin/TASK1+Cav3.1 cell line.

pIC50: −log10 of the molar value. Like-named read-outs stand apart in the source and are kept apart here.

T1 sequence (O43497 whole entry): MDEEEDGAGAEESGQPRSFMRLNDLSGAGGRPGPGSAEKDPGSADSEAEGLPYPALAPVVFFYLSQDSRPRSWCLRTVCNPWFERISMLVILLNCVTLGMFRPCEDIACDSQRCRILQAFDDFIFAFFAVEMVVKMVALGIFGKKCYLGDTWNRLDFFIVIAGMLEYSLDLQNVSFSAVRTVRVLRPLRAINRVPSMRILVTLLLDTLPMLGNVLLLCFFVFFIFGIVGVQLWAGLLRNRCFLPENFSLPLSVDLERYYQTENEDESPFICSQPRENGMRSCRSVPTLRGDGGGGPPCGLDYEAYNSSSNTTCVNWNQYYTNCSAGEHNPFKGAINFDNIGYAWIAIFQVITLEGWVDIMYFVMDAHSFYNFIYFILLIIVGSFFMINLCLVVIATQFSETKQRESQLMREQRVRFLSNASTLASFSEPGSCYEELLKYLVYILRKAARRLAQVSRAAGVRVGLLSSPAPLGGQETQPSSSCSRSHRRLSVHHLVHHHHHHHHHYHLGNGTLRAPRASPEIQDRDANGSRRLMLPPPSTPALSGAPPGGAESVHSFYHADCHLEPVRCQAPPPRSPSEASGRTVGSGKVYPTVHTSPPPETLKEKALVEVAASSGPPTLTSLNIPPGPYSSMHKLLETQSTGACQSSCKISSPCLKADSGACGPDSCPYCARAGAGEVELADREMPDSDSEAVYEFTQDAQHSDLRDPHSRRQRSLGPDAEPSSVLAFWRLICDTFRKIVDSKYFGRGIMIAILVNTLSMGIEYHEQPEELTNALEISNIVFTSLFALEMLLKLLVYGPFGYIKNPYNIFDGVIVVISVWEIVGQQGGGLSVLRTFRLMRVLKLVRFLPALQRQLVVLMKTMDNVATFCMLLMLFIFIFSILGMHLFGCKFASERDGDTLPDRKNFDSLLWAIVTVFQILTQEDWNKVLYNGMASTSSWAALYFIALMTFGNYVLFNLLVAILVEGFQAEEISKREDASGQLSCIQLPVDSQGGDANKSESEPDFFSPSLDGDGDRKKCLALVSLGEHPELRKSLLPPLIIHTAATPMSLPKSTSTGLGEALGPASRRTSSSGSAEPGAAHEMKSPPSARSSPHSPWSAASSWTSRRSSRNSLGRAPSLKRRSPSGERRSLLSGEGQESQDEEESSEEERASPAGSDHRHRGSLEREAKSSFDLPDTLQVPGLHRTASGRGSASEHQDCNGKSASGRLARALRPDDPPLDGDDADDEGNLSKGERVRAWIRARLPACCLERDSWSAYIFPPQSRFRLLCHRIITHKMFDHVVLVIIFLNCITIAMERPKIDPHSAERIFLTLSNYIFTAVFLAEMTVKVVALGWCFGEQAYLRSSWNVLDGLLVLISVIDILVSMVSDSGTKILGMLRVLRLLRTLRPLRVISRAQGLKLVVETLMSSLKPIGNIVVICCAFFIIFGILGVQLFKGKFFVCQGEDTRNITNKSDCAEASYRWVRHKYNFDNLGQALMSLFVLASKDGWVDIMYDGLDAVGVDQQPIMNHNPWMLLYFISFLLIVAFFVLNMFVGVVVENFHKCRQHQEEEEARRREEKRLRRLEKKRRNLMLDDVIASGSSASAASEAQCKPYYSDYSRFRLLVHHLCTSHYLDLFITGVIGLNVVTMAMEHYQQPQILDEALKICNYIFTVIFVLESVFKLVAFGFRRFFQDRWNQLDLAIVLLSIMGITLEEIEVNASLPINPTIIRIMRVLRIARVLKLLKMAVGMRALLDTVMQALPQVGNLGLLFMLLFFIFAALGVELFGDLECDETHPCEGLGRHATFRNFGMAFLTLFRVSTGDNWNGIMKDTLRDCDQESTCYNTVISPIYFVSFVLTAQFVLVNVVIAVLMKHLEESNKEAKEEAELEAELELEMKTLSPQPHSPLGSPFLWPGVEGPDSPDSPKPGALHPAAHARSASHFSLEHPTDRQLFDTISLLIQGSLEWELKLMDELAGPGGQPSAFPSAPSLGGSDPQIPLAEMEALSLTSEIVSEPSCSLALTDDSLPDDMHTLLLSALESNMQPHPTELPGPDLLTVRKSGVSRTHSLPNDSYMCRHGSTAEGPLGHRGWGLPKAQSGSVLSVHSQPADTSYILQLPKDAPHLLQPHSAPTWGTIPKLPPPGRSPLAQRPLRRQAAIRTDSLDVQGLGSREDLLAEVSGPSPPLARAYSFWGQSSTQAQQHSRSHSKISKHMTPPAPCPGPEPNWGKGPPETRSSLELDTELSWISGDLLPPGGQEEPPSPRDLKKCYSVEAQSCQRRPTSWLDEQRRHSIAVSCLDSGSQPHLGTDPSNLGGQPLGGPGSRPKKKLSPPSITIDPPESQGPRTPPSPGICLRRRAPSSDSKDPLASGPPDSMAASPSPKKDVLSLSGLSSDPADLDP

One may read the pIC50 as −log10 of the IC50, conventionally taken in molar units. On to `O=C(CN1CC2CC(C1)N2CC(=O)NC1(C(F)(F)F)CC1)Nc1ccc(F)c(Cl)c1` [Compound 240], for which the “% Inhibition (Single Point Data)” value under setting [1] is 80.113%. Further, the pIC50 under setting [2] was 6.48.
As for `OC(CN1C2CC1CN(Cc1nc3c(Cl)cc(F)cc3[nH]1)C2)C1CCCCC1` (stereo not shown) [Compound 147], under setting [1], the “% Inhibition (Single Point Data)” value was determined as 99.075%.
As to `OC1(CCN2C3CCC2CN(Cc2nc4c(Cl)cc(F)cc4[nH]2)C3)CCCC1` [Compound 92], the “% Inhibition (Single Point Data)” value under setting [1] is recorded as 98.505%. Also, the pIC50 under setting [2] is 6.76.
As to `OC1(CN2C3CC2CN(Cc2nc4c(Cl)cc(F)cc4[nH]2)C3)CCC(F)(F)CC1` [Compound 151], under setting [1], the “% Inhibition (Single Point Data)” value is on record as 95.252%.
As to `Fc1cc(Cl)c2nc(CN3CCN(CC(F)(F)C4CCCCC4)CC3)[nH]c2c1` [Compound 162], the “% Inhibition (Single Point Data)” value under setting [1] is listed as 73.357%. Further, the pIC50 under setting [2] is 6.38.
In the case of `O=C(CN1CC2CC(C1)N2CC(=O)NC1(C(F)(F)F)CC1)NC12CC3CC(CC(C3)C1)C2` [Compound 281], the “% Inhibition (Single Point Data)” value under setting [1] came out at 54.316%. For the same compound, the pIC50 under setting [2] was 6.05.
In the case of `COc1ccc(Cl)c2nc(CN3CC4CC(C3)N4CC(=O)NC(C)(C)C)[nH]c12` [Compound 206], the “% Inhibition (Single Point Data)” value under setting [1] came out at 95.576%. Also, the negative-log IC50 (pIC50) under setting [2] was 6.81.
As to `CC(C)(C)NC(=O)CN1CCN(Cc2cnc(-c3cc(F)cc(Cl)c3)[nH]2)CC1` [Compound 31, N-tert-butyl-2-[4-[[2-(3-chloro-5-fluoro-phenyl)-1H-imidazol-5-yl]methyl]piperazin-1-yl]acetamide], under setting [3], the “% Inhibition (Single Point Data)” value is recorded as 75.738%. For the same compound, under setting [2], the negative-log IC50 (pIC50) is 6.39.
On to `CN(C(=O)CN1C2CC1CN(Cc1nc3c(Cl)cc(F)cc3[nH]1)C2)C1CCCC1` [Compound 110], for which the pIC50 was more than 7.11. Under setting [1], the “% Inhibition (Single Point Data)” value worked out at 91.767%.
On to `Fc1ccc(Cl)c2nc(CN3CCN(CC4(F)CCC(F)(F)CC4)CC3)[nH]c12` [Compound 155], for which, under setting [1], the “% Inhibition (Single Point Data)” value was 80.753%. Also, the pIC50 under setting [2] was 6.43.
On to `CC(C)(C)NC(=O)CN1C2CCC1CN(Cc1nc3c(C(F)F)cccc3[nH]1)C2` [Compound 202], for which, under setting [1], the “% Inhibition (Single Point Data)” value was determined as 100.89%.
For the compound `CC(C)(C)NC(=O)CN1CCN(CC(=O)Nc2noc3ccccc23)CC1` [Compound 41], under setting [3], the “% Inhibition (Single Point Data)” value amounted to 38.937%. Also, under setting [2], the pIC50 is 6.50.
As for `CC(C)(C)NC(=O)CN1C[C@@H]2C[C@H]1CN2CC(=O)NC1CCCC(OC(F)F)C1` (stereo partly shown) [Compound 343], under setting [1], the “% Inhibition (Single Point Data)” value is reported as 32.872%. For the same compound, under setting [2], the pIC50 is 5.71.
Consider `OC(CN1CCN(Cc2nc3c(Cl)ccc(F)c3[nH]2)CC1)C1CCCCC1` (stereo not shown) [Compound 156], for which the “% Inhibition (Single Point Data)” value under setting [1] is on record as 86.133%.
Turning to `CC(C)(C)NC(=O)CN1C2CC1CN(CC(=O)NC1CCCCC1)C2` [Compound 309], the “% Inhibition (Single Point Data)” value under setting [1] is reported as 22.713%.
Consider `CCC(C)(C)NC(=O)CN1C2CCC1CN(Cc1nc3c(Cl)cc(F)cc3[nH]1)C2` [Compound 75], for which the “% Inhibition (Single Point Data)” value under setting [1] is 99.169%.
For `N#CC1(CN2C3CC2CN(Cc2nc4c(Cl)ccc(F)c4[nH]2)C3)CCC(F)(F)CC1` [Compound 179], the “% Inhibition (Single Point Data)” value under setting [1] came out at 32.612%. The pIC50 under setting [2] is 5.71.
Turning to `CC(C)(NC(=O)CN1CC2CC1CN2Cc1nc2c(Cl)cc(F)cc2[nH]1)C(F)(F)F` (stereo not shown) [Compound 125], under setting [1], the “% Inhibition (Single Point Data)” value worked out at 95.552%. Moreover, the pIC50 under setting [2] was 6.81.
With `CC(C)(NC(=O)CN1CC2CC1CN2Cc1nc2c(Cl)ccc(F)c2[nH]1)C(F)(F)F` (stereo not shown) [Compound 149], under setting [1], the “% Inhibition (Single Point Data)” value is recorded as 99.801%. Further, the pIC50 under setting [2] was 6.39.
On the same counts, the results for `CC(C(=O)Nc1ccc(F)c(OC(F)F)c1)N1CC2CC(C1)N2CC(=O)NC1(C(F)(F)F)CC1` (stereo not shown) [Compound 255] are 66.406% and 6.37.
Take `COC1(CCN2C3CCC2CN(Cc2nc4c(Cl)cc(F)cc4[nH]2)C3)CCCC1` [Compound 89]: under setting [1], the “% Inhibition (Single Point Data)” value turned out to be 98.148%.
Consider `CC(C)(CO)NC(=O)CN1C2CCC1CN(Cc1nc3c(Cl)cc(F)cc3[nH]1)C2` [Compound 79], for which the “% Inhibition (Single Point Data)” value under setting [1] amounted to 100%.
As for `CC(C)(C)NC(=O)CN1C[C@@H]2C[C@H]1CN2CC(=O)Nc1cccc(OC(F)F)c1` [Compound 253], the “% Inhibition (Single Point Data)” value under setting [1] is 38.026%. Moreover, under setting [2], the negative logarithm of the IC50 (pIC50) is 5.88.
In the case of `O=C(CN1C2CCC1CN(Cc1nc3c(Cl)cc(F)cc3[nH]1)C2)N1CCC(O)CC1` [Compound 88], the “% Inhibition (Single Point Data)” value under setting [1] worked out at 61.278%.
Consider `CC(C)(C)NC(=O)CN1C2CCC1CN(CCc1nc3c(Cl)cc(F)cc3[nH]1)C2` [Compound 195], for which, under setting [1], the “% Inhibition (Single Point Data)” value came out at 44.852%. Also, the pIC50 under setting [2] is 5.94.
In the case of `CC(C)(C)NC(=O)CN1C[C@@H]2C[C@H]1CN2CC(=O)Nc1cc(F)cc(Cl)c1` [Compound 58], under setting [1], the “% Inhibition (Single Point Data)” value amounted to 91.889%.
In the case of `CC(C)(C)CC(=O)N1C2CC1CN(Cc1nc3c(Cl)cc(F)cc3[nH]1)C2` [Compound 116], the pIC50 under setting [2] was 5.61.
`CC(C)(C)NC(=O)CN1C2CC(CNC(=O)c3cc(F)cc(Cl)c3)CC1C2` (stereo not shown) [Compound 322]: the “% Inhibition (Single Point Data)” value under setting [1] stood at 91.88%. The pIC50 under setting [2] was 6.73.
On the same counts, the results for `CC(C)(NC(=O)CN1C[C@H]2C[C@@H]1CN2CC(=O)Nc1ccc(F)c(Cl)c1)C(F)(F)F` [Compound 27] are 69.274% and 6.34.
Taken in the same sequence, the figures for `CC1(C)CCN1C(=O)CN1C2CCC1CN(Cc1nc3c(Cl)cc(F)cc3[nH]1)C2` [Compound 86] were 103.03% and 6.82.
As for `COc1cc(F)cc2[nH]c(CN3CC4CC(C3)N4CC(=O)NC(C)(C)C)nc12` [Compound 164], under setting [1], the “% Inhibition (Single Point Data)” value is reported as 84.695%.
With `CC(C)(C)NC(=O)CN1C2CC1CN(CC(=O)Nc1cccc(Cl)c1)C2` [Compound 11], the “% Inhibition (Single Point Data)” value under setting [1] came out at 81.305%.
For `O=C(CN1CC2CC(C1)N2CC(F)(F)C1CCCCC1)Nc1cc(F)cc(Cl)c1` [Compound 226], the “% Inhibition (Single Point Data)” value under setting [1] is 39.507%.
As for `CC(C)(NC(=O)CN1C2CC1CN(Cc1nc3c(OC(F)F)ccc(F)c3[nH]1)C2)C(F)(F)F` [Compound 184], under setting [1], the “% Inhibition (Single Point Data)” value is given as 86.326%. Further, under setting [2], the pIC50 was 6.70.
As for `CC(C)(C)NC(=O)CN1C[C@@H]2C[C@H]1CN2CC(=O)NC12CCC(CC1)CC2` [Compound 287], under setting [1], the “% Inhibition (Single Point Data)” value is reported as 72.068%. Also, under setting [2], the pIC50 is 6.17.
Consider `Cc1ccc(C#N)c2nc(CN3CC4CC(C3)N4CC(=O)NC(C)(C)C)[nH]c12` [Compound 177], for which the “% Inhibition (Single Point Data)” value under setting [1] amounted to 87.595%.
Regarding `CC(C)(C)NC(=O)CN1C2CC1CN(CC(=O)NCC13CC4CC(CC(C4)C1)C3)C2` [Compound 306], the “% Inhibition (Single Point Data)” value under setting [1] stood at 34.765%. Further, the pIC50 under setting [2] was 5.70.
Consider `CC(C)(C)NC(=O)CN1C2CC1CN(Cc1nc3c(C(F)(F)F)cccc3[nH]1)C2` [Compound 122], for which the “% Inhibition (Single Point Data)” value under setting [1] was 80.218%. Also, under setting [2], the pIC50 is 6.65.
With `O=C1CCCCN1CCN1C2CC1CN(Cc1nc3c(Cl)cc(F)cc3[nH]1)C2` [Compound 120], under setting [1], the “% Inhibition (Single Point Data)” value is listed as 81.802%.
Turning to `CC(C)(C)NC(=O)CN1CC2CC1CN2CC(=O)Nc1cc(F)cc(OC(F)F)c1` (stereo not shown) [Compound 231], the “% Inhibition (Single Point Data)” value under setting [1] came to 95.51%. Under setting [2], the pIC50 is 7.05.

Source of the values: US20250213558A1, “T-TYPE CALCIUM CHANNEL MODULATORS COMPRISING A PIPERAZINE OR 1,4-DIAZEPANE CORE AND METHODS OF USE THEREOF” (Praxis Precision Medicines, Inc., priority 2022, published 2025).
